Test results: patent publication US20240216343A1, “ENDOTHELIAL IK AND SK CHANNEL ACTIVATION TO TREAT PULMONARY HYPERTENSION” (UNIVERSITY OF VIRGINIA PATENT FOUNDATION, priority 2023, published 2024)
“Also recorded” adds a separate entry of the source. Blank lines part the entries; values can stand above or below the molecule they belong to.

Columns and labels:
[1] = test system: fourth-order PAs; assay: Pressure myography of mouse fourth-order PAs
Description: Mouse fourth-order PAs (˜50 μm) were cannulated on glass micropipettes in a pressure myography chamber (The Instrumentation and Model Facility; University of Vermont; Burlington; VT; USA) and pressurized to a physiological pressure of 15 mm Hg (24). Briefly, freshly dissected lungs were placed in ice cold HEPES buffer in a dissection plate. The left lung was stretched and pinned down, with ventral side facing up. First, pulmonary veins, and then the airway were cut open to gain access to the pulmonary arteries underneath. Once PAs were visible, they were gently separated from surrounding tissue (25). Arteries were superfused with bicarbonate-physiological salt solution (PSS; 119 mmol/L NaCl; 4.7 mmol/L KCl; 1.2 mmol/L KH2PO4; 1.2 mmol/L MgCl2 hexahydrate; 2.5 mmol/L CaCl2) dihydrate; 7 mmol/L dextrose; and 24 mmol/L NaHCO3) at 37° ° C. and bubbled with 20% O2/5% CO2 to maintain the pH at 7.4. Approximately 20% PAs from normal mice develop myogenic tone, whereas ˜65% PA from Su+CH mice show myogenic tone at 15 mm Hg. Due to the relatively small percentage of PAs from normal mice showing myogenic tone, we pre-constricted all PAs with 30 nmol/L U46619 (a thromboxane A2 receptor agonist). […] U46619 was added to the chamber immediately, before the arteries could develop myogenic tone. Before measuring vascular reactivity, arteries were treated with NS309 (1 μmol/L), a direct activator of endothelial IK/SK channels, to assess endothelial health. […] Changes in arterial diameter were recorded at a 60-ms frame rate using a charge-coupled device camera and edge-detection software (IonOptix LLC; Westwood; MA; USA) (11, 26). At the end of each experiment, Ca^2+-free PSS (119 mmol/L NaCl; 4.7 mmol/L KCl; 1.2 mmol/L KH2PO4; 1.2 mmol/L MgCl2 hexahydrate; 7 mmol/L dextrose; 24 mmol/L NaHCO3; and 5 mmol/L EGTA) was applied to assess the maximum passive diameter. Percent constriction was calculated by:
[formula] • where Diameterbefore is the diameter of the artery before treatment and Diameterafter is the diameter after treatment. Percent dilation was calculated by:
[formula] • where Diameterbasal is the stable diameter before drug treatment, Diameterdilated is the diameter after drug treatment, and Diameterca-free is the maximum passive diameter.

[2] = test system: large PAs; settings: rats exposed to chronic hypoxia; reference (49); cited from earlier work
[3] = test system: Su+CH mouse model of PH; assay: RVSP measurement after acute treatment; assay type: in vivo
Experimental: (§1) PH was induced by exposing C57BL6/J mice to chronic hypoxia (CH; 10% 02: 4 weeks) with concurrent treatment with the receptor tyrosine kinase inhibitor, SU5416 (20 mg·kg^−1), administered subcutaneously (s.c.) once a week (20). SU5416 was dissolved in DMSO/PEG 400 (50/50). Mice were exposed to CH conditions in a vinyl hypoxic chamber (Coy Laboratory Products; Inc. Grass Lake; MI; USA) connected to an auto purge airlock inlet. Oxygen concentration in the glove box was regulated by an oxygen controller and oxygen sensor (Coy Laboratory Products, Inc.). Control mice were maintained in room air for 4 weeks.
(§2) Mice were anesthetized with pentobarbital (50 mg·kg^−1; i.p.), and bupivacaine HCl (100 μL of 0.25% solution; s.c.) was used to numb the dissection site on the mouse. RVSP was measured as an indirect indicator of PAP (18, 21). Mice were cannulated with a Mikro-Tip pressure catheter (SPR-671; Millar Instruments; Houston; TX; USA), connected to a bridge amp (FE221) and a PowerLab 4/35 4-channel recorder (ADInstruments; Colorado Springs; CO; USA), through the external jugular vein into the right ventricle. Right ventricular pressure was acquired and analyzed using LabChart8 software (ADInstruments). In the subgroup of mice treated with SKA-31 (30 mg·kg^−1; i.p.), RVSP was measured before SKA-31 injection and 20 minutes after. A stable 3-minute recording was acquired for all animals, and a 1-minute continuous segment was used for data analysis. Where necessary, traces were digitally filtered using a low-pass filter at a cut-off frequency of 50 Hz. At the end of experiments, mice were euthanized, and their hearts were isolated for right ventricular hypertrophy analysis. Right ventricular hypertrophy was determined by calculating the Fulton index, a ratio of the right ventricular (RV) heart weight over the left ventricular (LV) plus septum (S) weight (RV/LV+S).

[4] = test system: Su+CH mouse model of PH; assay: Chronic treatment: RVSP, Fulton index and PA remodeling (histology, immunostaining); assay type: in vivo
Experimental: as §1
For PA remodeling studies, mice in the experimental group were treated with the IK/SK channel activator, SKA-31 (30 mg·kg^−1; i.p.), twice a day for the final 7 days of Su+CH exposure. Control mice were exposed to Su+CH for 4 weeks but were injected with vehicle instead of SKA-31. At the end of week 4 of Su+CH exposure, mice were euthanized with pentobarbital (90 mg·kg^−1; i.p.; UVA Hospital Pharmacy) and left lungs were perfused with the NO donor and fast-acting vasodilator, SNP (50 μmol/L; Sigma Aldrich), followed by incubation overnight at room temperature with 4% paraformaldehyde (PFA) for histology and immunostaining.
as §2
Isolated left lungs were perfused with PBS containing 50 μmol/L SNP and fixed in 4% PFA overnight at room temperature before paraffin embedding and sectioning. After sectioning paraffinized lungs, sections (5-μm thick) were deparaffinized and incubated in endogenous peroxidase (30%) for 30 minutes at room temperature, followed by a 5-minute wash with double-distilled H2O. For antigen retrieval, sections were microwaved in a citrate-based antigen unmasking solution (Vector Laboratories; Newark; CA; USA) for 20 minutes with brief pauses to avoid boiling. After allowing slides to cool in the antigen unmasking solution for 1 hour at room temperature, sections were permeabilized by incubating with 0.2% Triton-X for 30 minutes on a shaking rocker at room temperature, then blocked by incubating with 0.2% Triton-X, 5% normal donkey serum (ab7475; Abcam; Cambridge; MA; USA) and fish skin gelatin (FSG; Sigma Aldrich) for 1 hour. […]

[5] = Cardiac functional magnetic resonance imaging; assay type: in vivo, mouse; settings: acute SKA-31 administration
[6] = cited from earlier work
[7] = reference (33); cited from earlier work
[8] = test system: IK/SK channels; settings: reference (37); cited from earlier work
[9] = test system: IK/SK channels in SMCs from PAs; assay: Whole-cell patch-clamp in freshly isolated SMCs from small PAs; assay type: cell-based, mouse; settings: TRAM-34 1 μmol/L and Apa 300 nmol/L added together after NS309 1 μmol/L; SMCs from control or Su+CH mice
Experimental: For SMC isolation (27), arterial segments were transferred to a 12×75 mm borosilicate glass culture tube containing 1 mL dissociation solution (145 mmol/L NaCl; 4 mmol/L KCl; 1 mmol/L MgCl2; 10 mmol/L HEPES; 0.05 mmol/L CaCl2), 10 mmol/L glucose; pH 7.3) and 0.5 mg/mL bovine serum albumin (BSA) and incubated for 10 minutes at room temperature (˜24° C.). The solution was then replaced with 1 mL dissociation solution containing 1 mg/mL papain (Sigma Aldrich) and 0.5 mg/mL dithiothreitol (Sigma Aldrich), and incubation was continued at 37° C. for 20 minutes. […]
Whole-cell currents were measured at room temperature using conventional whole-cell patch-clamp electrophysiology. […] The pipette solution for conventional patch clamp consisted of 10 mmol/L HEPES, 123.2 mmol/L KCl, 10 mmol/L NaCl, 5.5 mmol/L MgCl2, 0.2 mmol/L CaCl2) and 5 mmol/L HEDTA (adjusted to pH 7.2 with 16.8 mm KOH) and contained 3 μm free-Ca^2+ and 1 mmol/L free-Mg^2+, as calculated using the Max-Chelator program (Chris Patton; Stanford University; Stanford; CA; USA). […] Data were acquired using a Multiclamp 700B amplifier connected to a Digidata 1550B system and analyzed using Clampfit 11.1 software (Molecular Devices, San Jose, CA, USA).
NS309-induced ionic currents were measured in freshly isolated SMCs (FIG. 4A) from PAs in whole-cell patch-clamp experiments (FIGS. 4B and 4C).

[10] = 30 mg·kg−1 i.p. twice a day for 7 days

SMILES: Nc1ncnc2c1ncn2[C@@H]1O[C@H](COP(=O)(O)OP(=O)(O)OP(=O)(O)O)[C@@H](O)[C@H]1O [ATP, adenosine triphosphate]
Dilation of PAs from CH+Su mice ([1]; CH+Su mice): unable to dilate

SMILES: NC(=NCCC[C@H](N)C(=O)O)N[N+](=O)[O-] [L-NNA]
Constriction of PAs from Su+CH mice ([1]; L-NNA 100 μmol/L, Su+CH mice): unable constrict
Constriction of PAs from N mice ([1]; L-NNA 100 μmol/L, normoxic mice): ~20%

SMILES: CCn1c(=O)n(CC)c2c(Cl)c(Cl)ccc21 [NS4591]
Dilatory response of large PAs after chronic hypoxia [2]: decreases

Cardiac output [5]: does not alter
Ejection fraction [5]: does not alter
Stroke volume [5]: does not alter
SMILES: Nc1nc2c(ccc3ccccc32)s1 [SKA-31, naphtho[1,2-d]thiazol-2-ylamine]
RVSP in Su+CH mice, acute treatment ([3]; 30 mg·kg−1 i.p., RVSP before and 20 minutes after injection, Su+CH mice): significantly reduced; also recorded: lowered
RVSP in normal (N) mice, acute treatment ([3]; 30 mg·kg−1 i.p., normoxic/control mice): not in N mice; also recorded: not observed in normal mice; also recorded: not in control mice
PAP in Su+CH mice, acute treatment ([3]; acute SKA-31, Su+CH mice but not control mice): lowered
Collagen content of PAs (Masson's Trichrome) in Su+CH mice [4, 10]: reduced
Fulton index (right ventricular hypertrophy) in Su+CH mice, chronic treatment [4, 10]: significantly lowered; also recorded: reduced
α-actin immunostaining of PAs in Su+CH mice [4, 10]: reduced
RVSP in Su+CH mice, chronic treatment ([4]; 30 mg·kg−1 i.p. twice a day for 7 days, fourth week of Su+CH): significantly lowered
Pulmonary artery lesions in Su+CH mice, chronic treatment ([4]; chronic SKA-31): reduced
Heart rate [5]: does not alter
Metabolism ([6]; reason for in vivo use instead of NS309, reference (33)): favorable metabolism
Half-life in vivo ([6]; references (37, 38)): longer half-life
Resting systemic blood pressure [7]: lowered
Potency as activator of IK/SK channels relative to NS309 [8]: less potent

SMILES: Clc1ccccc1C(c1ccccc1)(c1ccccc1)n1cccn1 [TRAM-34]
Effect on NS309-induced outward currents in SMCs [9]: did not reduce
Constriction of small PAs ([1]; TRAM-34 1 μmol/L and Apa 300 nmol/L applied together, not different between N and Su+CH mice): ~10%

SMILES: CCCCC[C@H](O)/C=C/[C@@H]1[C@@H](C/C=C\CCCC(=O)O)[C@H]2CO[C@@H]1C2 [U46619]
Arteries showing a constriction ([1]; U46619 30 nmol/L, both normal and PH groups): More than 95%
